Experiments:
trypsin = test: Stability of HK polyplexes to enzymatic degradation; type: in vitro ADME; conditions: trypsin (0.025%) 30 or 60 min; HK (0.5, 1, 4 µg):mRNA (1 µg); release of mRNA on 1% agarose gel
Procedure: After preparation of the H3K4b‐ or H3k(+H)4b‐mRNA polyplexes [w:w; HK (0.5, 1 or 4 μg):mRNA (1 μg)], these polyplexes were incubated with trypsin (0.025%) for 30 or 60 minutes. The HK polyplexes were then loaded on a 1% agarose gel and electrophoresis was carried out at 75 V for 30 minutes in TAE buffer. The gel was stained in a TAE buffer containing ethidium bromide (1 μg/ml) for 10 minutes.
[picture] Figure S3. Stability of HK polyplexes to enzymatic degradation. After preparation of the H3K4b or H3k(+H)4b mRNA polyplexes (wt:wt; HK (0.5, 1, 4 µg):mRNA (1 µg)), these polyplexes were incubated with trypsin (0.025%) for 30 or 60 min. The HK polyplexes were then loaded on a 1% agarose gel and electrophoresis was carried out at 75 V for 30 min in TAE buffer. The gel was stained in a TAE buffer containing ethidium bromide (1 µg/ml) for 10 min.

MDA‐MB‐231 cells = test: In vitro uptake of HK polyplexes by flow cytometry; type: cell-based; conditions: HK:mRNA 4:1, 1, 2 and 4 hours, DMEM/10% FBS
Procedure: Intracellular uptake of polymer–mRNA complex in MDA‐MB‐231 was measured by flow cytometry. Twenty‐four hours before the treatment, cells were plated in a 24‐well plate. The polymer‐mRNA polyplex was formed in Opti‐MEM at a ratio of 4:1 at room temperature for 30 minutes. After the cell culture medium was replaced with DMEM/10% FBS, H3K(+H)4b‐ or H3K4b‐mRNA polyplexes (cyanine 5'‐labeled mRNA; Trilink Biotechnologies, Inc.) were added to the cells. At several time points (1, 2 and 4 hours), transfected cells were harvested, fixed with 4% formalin/1% glutaraldehyde, and resuspended in PBS buffer for analysis. The results from the fluorescently labeled MDA‐MB‐231 cells were then acquired using Cytoflex (Beckman Coulter) and analyzed using CytExpert, version 2.3.0.84 (Beckman Coulter) on the flow cytometer.
Figure S2. Uptake of cyanine 5-labeled mRNA uptake into MDA-MB-231 cells with different peptide carriers. The percentages of cells containing labeled mRNA 1, 2, 4 hours after transfection with H3K(+H)4b (upper panel) or with H3K4b (lower panel).

cytokines = conditions: in vitro and in vivo; cited from earlier work

Substance	Stability of mRNA polyplex to trypsin (trypsin)	Uptake of Cy5-labelled mRNA polyplexes into cells (MDA‐MB‐231 cells)	Cytokine induction by siRNA polyplex (cytokines)
R = KHHHKHHHKHHHHKHHHK [H3K(+H)4b, four‐branched analogue of H3K4b with one extra histidine in the second ‐HHHK‐ motif]	reduced stability to trypsin at the 1:2 and 1:1 ratios compared to the H3k(+H)4b polyplex	imported into the cells more than H3K4b polyplexes	
R = KHHHKHHHKHHHKHHHK [H3K4b]			induced cytokines to a significantly greater degree in vitro and in vivo than the H3K(+H)4b‐siRNA polyplexes

From article PMC7900953, “Location of a single histidine within peptide carriers increases mRNA delivery” (The Journal of Gene Medicine, 2020)
